Experimental data: patent publication US20070238617A1, “Diamino-1,3,5-triazines N-substituted with bicyclic radicals, process for their preparation, compositions thereof, and their use as herbicides and plant growth regulators” (Bayer CropScience AG, priority 2006, published 2007)

What was measured:
[1] = system: plantation crops such as oil palm, coconut palm, India-rubber tree, citrus, pineapples, cotton, coffee, cocoa and vines; assay: Weed control in plantation crops (field trials, crop tolerance); format: in vivo; details: natural weed infestation, various dosages, even at high rates of active substance
Description: In further field trials plantation crops were grown under conditions of natural weed infestation and sprayed with various dosages of the substances of formula (I) according to the invention.

[2] = system: harmful plants such as Sinapis alba, Echinochloa crus-galli, Lolium multiflorum, Stellaria media, Cyperus iria, Amaranthus retroflexus, Setaria viridis, Avena …; assay: Post-emergence effect on weeds (greenhouse pot test); format: in vivo; details: application rate of 2 kg or less of active ingredient per hectare; sprayed in the three-leaf stage; scored visually after approx. 3 to 4 weeks vs untreated controls
Description: Seeds or rhizome pieces of monocotyledonous and dicotyledonous weeds were placed in sandy loam in plastic pots, covered with soil and grown in the greenhouse under good growth conditions. Three weeks after sowing, the test plants were treated in the three-leaf stage. Various dosages of the compounds according to the invention, which were formulated as wettable powders or emulsion concentrates, were sprayed to the green plant parts at an application rate of 600 to 800 l of water per ha (converted). After the test plants have been left to stand in the greenhouse for approx. 3 to 4 weeks under optimal growth conditions, the effect of the preparations was scored visually by comparison with untreated controls. Compound nos.

[3] = system: harmful plants such as Stellaria media, Lolium multiforum, Amaranthus retroflexus, Sinapis alba, Avena sativa and Setaria viridis; assay: Pre-emergence effect on weeds (greenhouse pot test); format: in vivo; details: application rate of 0.5 kg or less of active ingredient per hectare; applied to soil cover; scored visually after 3 to 4 weeks vs untreated controls
Excerpt: Seeds or rhizome pieces of monocotyledonous and dicotyledonous weed plants were placed in sandy loam in plastic pots and covered with soil. The compounds according to the invention, which were formulated in the form of wettable powders or emulsion concentrates, were then applied to the surface of the soil cover as aqueous suspension or emulsion at various dosages with an application rate of 600 to 800 l of water per ha (converted).

Row | SMILES | damage to plantation crops (visual assessment) [1] | herbicidal post-emergence activity against harmful plants [2] | pre-emergence control of harmful plants [3] | melting point
1 | Cc1cc(C)c2c(c1)C(Nc1nc(N)nc(C(F)F)n1)CCC2 (racemic) [Compound 1.5] | unharmed | very good herbicidal post-emergence activity | very good pre-emergence control | 
2 | Cc1cccc2c1OCCC2Nc1nc(N)nc(C(F)F)n1 (racemic) [Compound 1.205] | unharmed | very good herbicidal post-emergence activity | very good pre-emergence control | 
3 | Cc1ccc2c(c1)[C@H](Nc1nc(N)nc(C(F)F)n1)CC2 [Compound 2.1] | unharmed | very good herbicidal post-emergence activity | very good pre-emergence control | 
4 | Cc1ccc2c(c1)[C@H](Nc1nc(N)nc(C(F)F)n1)CCC2 [Compound 2.2] | unharmed | very good herbicidal post-emergence activity | very good pre-emergence control | 
5 | Cc1ccc2c(c1)[C@H](Nc1nc(N)nc(C(F)F)n1)CCO2 [Compound 2.3] | unharmed | very good herbicidal post-emergence activity | very good pre-emergence control | 
6 | Cc1cc(C)c2c(c1)[C@H](Nc1nc(N)nc(C(F)F)n1)CCC2 [Compound 2.5] | unharmed | very good herbicidal post-emergence activity | very good pre-emergence control | 
7 | Nc1nc(N[C@@H]2CCOc3c(F)cccc32)nc(C(F)F)n1 [Compound 2.206, 6-(Difluoromethyl)-N-[(4R)-8-fluoro-3,4-dihydro-2H-chromen-4-yl]-1,3,5-triazine-2,4-diamine] | unharmed | very good herbicidal post-emergence activity | very good pre-emergence control | 
8 | Cc1ccc2c(c1)[C@H](Nc1nc(N)nc(C(F)F)n1)[C@@H](C)C2 [Compound 3.1, 6-(difluoromethyl)-N-[(1R,2S)-2,6-dimethyl-2,3-dihydro-1H-inden-1-yl]-1,3,5-triazine-2,4-diamine] | unharmed | very good herbicidal post-emergence activity | very good pre-emergence control | 132 to 134 °C
9 | CC[C@H]1Cc2ccc(C)cc2[C@@H]1Nc1nc(N)nc(C(F)F)n1 [Compound 3.31] | unharmed | very good herbicidal post-emergence activity | very good pre-emergence control | 
10 | C[C@H]1Cc2ccc(Br)cc2[C@@H]1Nc1nc(N)nc(C(F)F)n1 [Compound 3.82] | unharmed | very good herbicidal post-emergence activity | very good pre-emergence control | 
11 | CC(=O)Nc1nc(N[C@H]2c3cc(C)ccc3C[C@@H]2C)nc(C(F)F)n1 [Compound 3.106] | unharmed | very good herbicidal post-emergence activity | very good pre-emergence control | 
12 | CCC(=O)Nc1nc(N[C@H]2c3cc(C)ccc3C[C@@H]2C)nc(C(F)F)n1 [Compound 3.109, N-(4-(difluoromethyl)-6-{[(1R,2S)-2,6-dimethyl-2,3-dihydro-1H-inden-1-yl]-amino}-1,3,5-triazin-2-yl)propanamide] | unharmed | very good herbicidal post-emergence activity | very good pre-emergence control | 
13 | Cc1ccc2c(c1)[C@H](Nc1nc(NC(=O)C(C)(C)C)nc(C(F)F)n1)[C@@H](C)C2 [Compound 3.112] | unharmed | very good herbicidal post-emergence activity | very good pre-emergence control | 
14 | Cc1ccc2c(c1)[C@H](Nc1nc(NC=O)nc(C(F)F)n1)[C@@H](C)C2 [Compound 3.118, N-[4-(difluoromethyl)-6-{[(1R,2S)-2,6-dimethyl-2,3-dihydro-1H-inden-1-yl]amino}-1,3,5-triazin-2-yl]-formamide] |  |  |  | 66 °C
